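The compound was tested at five concentrations on cells cultured in 96-well plates, with a 48-hour exposure period. TGI marks complete inhibition of growth.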 Bounds are passed on as bounds.

The TGI is the concentration at which net growth stops. High values mean lower sensitivity of the cells, low ones greater sensitivity of the cells.

One assay relates to HCT-15 colon. The experiment in a line: DTP human tumour cell line panel, 48 h.
The compound `O=[N+]([O-])C1C2C=CC(C2)[C@H]1c1ccco1` (stereo not given in full) showed a total growth inhibition concentration (TGI) of over 100 µM.

In turn, `Cc1c(/C=N/NC(=O)c2cc(Br)cc(Br)c2O)c(=O)n(-c2ccccc2)n1C` had a TGI of over 100 µM.

On to `O=C1C(Br)=CC2(C=C1Br)CCNC1=C2C(=O)c2ccccc2C1=O`, for which the TGI was 30.3 µM. This counts as double-digit micromolar.

As to `CCOC(=O)c1nc2ccc(Cl)cc2c2c1Cc1ccccc1-2`, the TGI is over 100 µM.

`CCN(CC)CSc1nc2ccccc2s1` had a TGI of over 100 µM.

The subject of another assay is EKVX NSCLC. The experiment in a line: DTP human tumour cell line panel, 48 h.
`O=[N+]([O-])C1C2C=CC(C2)[C@H]1c1ccco1` (stereo not given in full) gave a total growth inhibition concentration (TGI) of over 100 µM.

With `Cc1c(/C=N/NC(=O)c2cc(Br)cc(Br)c2O)c(=O)n(-c2ccccc2)n1C`, the TGI is over 100 µM.

`O=C1C(Br)=CC2(C=C1Br)CCNC1=C2C(=O)c2ccccc2C1=O` had a total growth inhibition concentration (TGI) of 99.1 µM.

`CCOC(=O)c1nc2ccc(Cl)cc2c2c1Cc1ccccc1-2` displayed a TGI of over 100 µM.

The compound `CCN(CC)CSc1nc2ccccc2s1` gave a concentration for total growth inhibition (TGI) of over 100 µM.

The next assay deals with HT29 colon. The experiment in a line: DTP human tumour cell line panel, 48 h.
For the compound `O=[N+]([O-])C1C2C=CC(C2)[C@H]1c1ccco1` (stereo not given in full), the TGI came to 9.22 µM.

Compound `Cc1c(/C=N/NC(=O)c2cc(Br)cc(Br)c2O)c(=O)n(-c2ccccc2)n1C` showed a total growth inhibition concentration (TGI) of over 100 µM.

Take `O=C1C(Br)=CC2(C=C1Br)CCNC1=C2C(=O)c2ccccc2C1=O`: the concentration for total growth inhibition (TGI) was over 100 µM.

With `CCN(CC)CSc1nc2ccccc2s1`, the TGI was over 100 µM.

The subject of a further assay is SNB-78 CNS. The experiment in a line: DTP human tumour cell line panel, 48 h.
Consider `O=[N+]([O-])C1C2C=CC(C2)[C@H]1c1ccco1` (stereo not given in full), for which the TGI is over 100 µM.

For the compound `Cc1c(/C=N/NC(=O)c2cc(Br)cc(Br)c2O)c(=O)n(-c2ccccc2)n1C`, the TGI was over 100 µM.

`O=C1C(Br)=CC2(C=C1Br)CCNC1=C2C(=O)c2ccccc2C1=O` returned a TGI of over 100 µM.

`CCOC(=O)c1nc2ccc(Cl)cc2c2c1Cc1ccccc1-2` displayed a TGI of over 100 µM.

For `CCN(CC)CSc1nc2ccccc2s1`, the concentration for total growth inhibition (TGI) is over 100 µM.

A further assay deals with A549 NSCLC. The experiment in a line: DTP human tumour cell line panel, 48 h.
`O=[N+]([O-])C1C2C=CC(C2)[C@H]1c1ccco1` (stereo not given in full): the TGI is over 100 µM.

Compound `Cc1c(/C=N/NC(=O)c2cc(Br)cc(Br)c2O)c(=O)n(-c2ccccc2)n1C` displayed a TGI of over 100 µM.

`O=C1C(Br)=CC2(C=C1Br)CCNC1=C2C(=O)c2ccccc2C1=O`: the total growth inhibition concentration (TGI) was over 100 µM.

Regarding `CCOC(=O)c1nc2ccc(Cl)cc2c2c1Cc1ccccc1-2`, the TGI is over 100 µM.

As to `CCN(CC)CSc1nc2ccccc2s1`, the total growth inhibition concentration (TGI) was over 100 µM.

A further assay relates to M14 melanoma. The experiment in a line: DTP human tumour cell line panel, 48 h.
The compound `O=[N+]([O-])C1C2C=CC(C2)[C@H]1c1ccco1` (stereo not given in full) yielded a total growth inhibition concentration (TGI) of over 100 µM.

In turn, `Cc1c(/C=N/NC(=O)c2cc(Br)cc(Br)c2O)c(=O)n(-c2ccccc2)n1C` came in with a TGI of over 100 µM.

With `O=C1C(Br)=CC2(C=C1Br)CCNC1=C2C(=O)c2ccccc2C1=O`, the concentration for total growth inhibition (TGI) was 69.3 µM.

The compound `CCOC(=O)c1nc2ccc(Cl)cc2c2c1Cc1ccccc1-2` yielded a total growth inhibition concentration (TGI) of over 100 µM.

In turn, `CCN(CC)CSc1nc2ccccc2s1` showed a TGI of over 100 µM.

A further assay relates to CCRF-CEM leukemia. The experiment in a line: DTP human tumour cell line panel, 48 h.
`O=[N+]([O-])C1C2C=CC(C2)[C@H]1c1ccco1` (stereo not given in full) yielded a concentration for total growth inhibition (TGI) of over 100 µM.

For `Cc1c(/C=N/NC(=O)c2cc(Br)cc(Br)c2O)c(=O)n(-c2ccccc2)n1C`, the total growth inhibition concentration (TGI) is over 100 µM.

`O=C1C(Br)=CC2(C=C1Br)CCNC1=C2C(=O)c2ccccc2C1=O` registered a TGI of 19 µM.

`CCN(CC)CSc1nc2ccccc2s1` displayed a concentration for total growth inhibition (TGI) of over 100 µM.

Another assay concerns NCI-H226 lung. The experiment in a line: DTP human tumour cell line panel, 48 h.
Turning to `O=[N+]([O-])C1C2C=CC(C2)[C@H]1c1ccco1` (stereo not given in full), the total growth inhibition concentration (TGI) was over 100 µM.

As for `Cc1c(/C=N/NC(=O)c2cc(Br)cc(Br)c2O)c(=O)n(-c2ccccc2)n1C`, the TGI is over 100 µM.

In turn, `CCOC(=O)c1nc2ccc(Cl)cc2c2c1Cc1ccccc1-2` displayed a TGI of over 100 µM.

Take `CCN(CC)CSc1nc2ccccc2s1`: the concentration for total growth inhibition (TGI) is over 100 µM.

A further assay relates to MOLT-4 leukemia. The experiment in a line: DTP human tumour cell line panel, 48 h.
The compound `O=[N+]([O-])C1C2C=CC(C2)[C@H]1c1ccco1` (stereo not given in full) yielded a TGI of over 100 µM.

Compound `Cc1c(/C=N/NC(=O)c2cc(Br)cc(Br)c2O)c(=O)n(-c2ccccc2)n1C` had a TGI of over 100 µM.

In turn, `O=C1C(Br)=CC2(C=C1Br)CCNC1=C2C(=O)c2ccccc2C1=O` showed a concentration for total growth inhibition (TGI) of 22.7 µM.

The compound `CCOC(=O)c1nc2ccc(Cl)cc2c2c1Cc1ccccc1-2` showed a total growth inhibition concentration (TGI) of over 100 µM.

In turn, `CCN(CC)CSc1nc2ccccc2s1` had a TGI of over 100 µM.

Another assay deals with SK-MEL-2 melanoma. The experiment in a line: DTP human tumour cell line panel, 48 h.
In turn, `O=[N+]([O-])C1C2C=CC(C2)[C@H]1c1ccco1` (stereo not given in full) had a TGI of over 100 µM.

The compound `Cc1c(/C=N/NC(=O)c2cc(Br)cc(Br)c2O)c(=O)n(-c2ccccc2)n1C` yielded a concentration for total growth inhibition (TGI) of over 100 µM.

Regarding `O=C1C(Br)=CC2(C=C1Br)CCNC1=C2C(=O)c2ccccc2C1=O`, the TGI was 34.7 µM. In other words, the double-digit micromolar range.

For the compound `CCOC(=O)c1nc2ccc(Cl)cc2c2c1Cc1ccccc1-2`, the TGI was over 100 µM.

A further assay has as its system SK-MEL-28 melanoma. The experiment in a line: DTP human tumour cell line panel, 48 h.
Compound `Cc1c(/C=N/NC(=O)c2cc(Br)cc(Br)c2O)c(=O)n(-c2ccccc2)n1C` returned a TGI of 49.8 µM. That is a double-digit micromolar value.

Compound `CCOC(=O)c1nc2ccc(Cl)cc2c2c1Cc1ccccc1-2` came in with a TGI of over 100 µM.

Take `CCN(CC)CSc1nc2ccccc2s1`: the concentration for total growth inhibition (TGI) is over 100 µM.

Another assay has as its system RXF 393 renal. The experiment in a line: DTP human tumour cell line panel, 48 h.
The compound `O=[N+]([O-])C1C2C=CC(C2)[C@H]1c1ccco1` (stereo not given in full) yielded a TGI of over 100 µM.

In turn, `CCOC(=O)c1nc2ccc(Cl)cc2c2c1Cc1ccccc1-2` came in with a TGI of over 100 µM.

In a further assay the test system is NCI-H460 lung. The experiment in a line: DTP human tumour cell line panel, 48 h.
`O=[N+]([O-])C1C2C=CC(C2)[C@H]1c1ccco1` (stereo not given in full) returned a concentration for total growth inhibition (TGI) of over 100 µM.

As to `Cc1c(/C=N/NC(=O)c2cc(Br)cc(Br)c2O)c(=O)n(-c2ccccc2)n1C`, the TGI is over 100 µM.

Another assay has as its system OVCAR-5 ovarian. The experiment in a line: DTP human tumour cell line panel, 48 h.
Consider `O=[N+]([O-])C1C2C=CC(C2)[C@H]1c1ccco1` (stereo not given in full), for which the total growth inhibition concentration (TGI) was over 100 µM.

Compound `Cc1c(/C=N/NC(=O)c2cc(Br)cc(Br)c2O)c(=O)n(-c2ccccc2)n1C` showed a total growth inhibition concentration (TGI) of over 100 µM.

Take `CCOC(=O)c1nc2ccc(Cl)cc2c2c1Cc1ccccc1-2`: the TGI was over 100 µM.

A further assay has as its system KM12 colon. The experiment in a line: DTP human tumour cell line panel, 48 h.
The compound `O=[N+]([O-])C1C2C=CC(C2)[C@H]1c1ccco1` (stereo not given in full) registered a TGI of over 100 µM.

The compound `Cc1c(/C=N/NC(=O)c2cc(Br)cc(Br)c2O)c(=O)n(-c2ccccc2)n1C` gave a concentration for total growth inhibition (TGI) of over 100 µM.

As for `O=C1C(Br)=CC2(C=C1Br)CCNC1=C2C(=O)c2ccccc2C1=O`, the TGI came out at 23.4 µM.

Take `CCOC(=O)c1nc2ccc(Cl)cc2c2c1Cc1ccccc1-2`: the TGI is over 100 µM.

Source of the values: PubChem BioAssay (NCI).
